According to patent US8088756B2, “Methods and compositions for oral delivery of FTS” (Concordia Pharmaceuticals, Inc., priority 2004, dated 2012):

Tests used:
[1] = Compatibility of FTS with pharmaceutical excipients (accelerated stability, HPLC assay); type: physicochemical; conditions: 1:1 w/w mixture with FTS, 40° C./75% RH, loosely capped vials
Experimental: Physical mixtures (1:1 w/w) of FTS and representative pharmaceutical excipients commonly used in oral formulations were stored at 40° C./75% RH accelerated stress conditions for four weeks in loosely capped vials. Samples were assayed by HPLC at the 0, 2-week and 4-week time points.

[2] = Bioavailability of orally administered FTS formulated in corn oil (plasma FTS by LC/MS); type: in vivo, CD-1 mice; conditions: CD-1, mouse, 40 mg/kg, mice, gavage, corn oil suspension
Experimental: (§1) FTS (40 mg) was dispersed in corn oil (10 ml). Aliquots of the resulting suspension were administered by gavage to CD-1 mice (eighteen) at a dose of […] (at a volume of 10 ml/kg of FTS suspension calculated for actual animal weight). Blood samples were collected in lithium heparin tubes via the retro-orbital plexus while under CO2/O2 anesthesia at 1, 2, 4, 8, 12 and 24 hours (3 animals at each time point) after dosing. Aliquots (100 μL) of plasma were mixed with water, pH 11 buffer solution and acetonitrile. After centrifugation, the supernatant was evaporated to dryness. The residue was resuspended in water/acetonitrile and centrifuged, and the supernatant was transferred to auto-sampler vials for FTS determination by liquid chromatography/mass spectrometry (LC/MS).
There was a rapid decrease to less than 3 ng/ml after 24 hours.

[3] = Bioavailability of orally administered FTS formulated in 0.5% aqueous carboxymethylcellulose (plasma FTS by LC/MS); type: in vivo, CD-1 mice; conditions: CD-1, mouse, 40 mg/kg, mice, gavage, 0.5% aqueous carboxymethylcellulose suspension
Experimental: as §1, with “Mg)” for “mg)”, “0.5% aqueous carboxymethylcellulose” for “corn oil”, “12,” for “12”, “solution,” for “solution”, “re-suspended” for “resuspended”, “LC/MS.” for “liquid chromatography/mass spectrometry (LC/MS).”

[4] = Bioavailability of orally administered FTS to rats (plasma FTS by LC/MS); type: in vivo, Crl:CD(SD) (IGS)BR rats; conditions: oral 200 mg/kg in corn oil (95%) and ethanol (5%)
Experimental: FTS was dissolved in a mixture of corn oil (95%) and ethanol (5%). Aliquots of the resulting solution were administered to Crl:CD(SD) (IGS)BR rats (twenty-four) at a dose of 200 mg/kg. Blood samples were collected in lithium-heparin-containing tubes via the retro-orbital plexus while under CO2/O2 anesthesia at 1, 2, 4, 8, 12 and 24 hours after dosing. Concentration of FTS at each time point was determined by LC/MS.

[5] = tested on: Panc-1 cells; assay: Inhibition of pancreatic tumor growth with orally administered FTS (subcutaneous Panc-1 implant); type: in vivo, Nude CD1-Nu Mice; conditions: for average tumor weight: control 1.02 g
Experimental: Nude CD1-Nu Mice were implanted subcutaneously with 5.0×10^6 Panc-1 cells in 0.2 ml of PBS just above the right femoral joint. Eleven days after implantation, palpable tumors were observed. FTS was dispersed in 0.5% aqueous carboxymethylcellulose at a concentration of 5 mg/ml. On the eleventh day after implantation, mice were segregated into three groups and were given vehicle or FTS suspension by gavage. Group 1 (Controls, 6 mice) received 0.2 ml vehicle daily. Group 2 (20 mg/kg FTS, 7 mice) received 0.1 ml FTS suspension daily. Group 3 (40 mg/kg FTS, 6 mice) received 0.2 ml FTS suspension daily. Mice were treated for ten days, and were sacrificed. Tumors were excised and weighed.

[6] = oral, dose 40 mg/ml (10 ml/kg), 1 hour
[7] = oral, dose 40 mg/ml (10 ml/kg), 2 hours
[8] = oral, dose 40 mg/ml (10 ml/kg), 24 hours
[9] = po, read-out: oral bioavailability compared to intra-peritoneal injection
[10] = 20 mg/kg FTS daily by gavage in 0.5% CMC for ten days
[11] = 40 mg/kg FTS daily by gavage in 0.5% CMC for ten days

HPLC assay, 0 weeks ([1]; 0 weeks, in % (unit assumed)): 97.75
HPLC assay, 2 weeks ([1]; 2 weeks): 97.1%
HPLC assay, 4 weeks ([1]; 4 weeks, in % (unit assumed)): 97.76
concentration at 1 h [2, 6]: 2160 ng/mL
concentration at 2 h [2, 7]: 1330 ng/mL
concentration at 24 h [2, 8]: < 3 ng/mL
bioavailability [2, 9]: 55%
concentration at 1 h [3, 6]: 3380 ng/mL
concentration at 2 h [3, 7]: 1590 ng/mL
concentration at 24 h [3, 8]: < 3 ng/mL
bioavailability [3, 9]: 69%
concentration at 1 h ([4]; Crl:CD(SD) (IGS)BR, rat, plasma, 1 hour): 4450 ng/mL
concentration at 2 h ([4]; Crl:CD(SD) (IGS)BR, rat, plasma, 2 hours): 4550 ng/mL
concentration at 4 h ([4]; Crl:CD(SD) (IGS)BR, rat, plasma, 4 hours): 3050 ng/mL
concentration at 8 h ([4]; Crl:CD(SD) (IGS)BR, rat, plasma, 8 hours): 2220 ng/mL
concentration at 12 h ([4]; Crl:CD(SD) (IGS)BR, rat, plasma, 12 hours): 685 ng/mL
concentration at 24 h ([4]; Crl:CD(SD) (IGS)BR, rat, plasma, 24 hours): 140 ng/mL
oral bioavailability (in words) [4]: high level of oral bioavailability
SMILES: CC(C)=CCC/C(C)=C/CC/C(C)=C/CSc1ccccc1C(=O)O [FTS, farnesyl-thiosalicylic acid]
tumor weight lower than control [5, 10]: 32%
average tumor weight [5, 10]: 0.68 g
tumor weight lower than control [5, 11]: 53%
average tumor weight [5, 11]: 0.47 g
